Counter-ions that a name gives are not always drawn. Like-named read-outs stand apart in the source and are kept apart here.

The subject of the experiment is sensitivity to distension of th colonic wall. Nature of the experiment: Glass bead expulsion test (time between rectal insertion and expulsion of bead). It counts as in vivo, male albino mice. Conditions: Mus musculus, 1 h, drug given one hour prior to glass bead insertion, ED50 = dose causing an activity index of 2. An excerpt: The disorder is characterized by abdominal pain, diarrhea, constipation and like symptoms caused by excessive sensitivity to distension of the bowel by the presence of intestinal gas and/or fecal material. The extent to which a compound is effective in providing relief may be determined by a test in which a glass bead is inserted into the rectum and the lapse of time between insertion and expulsion of the bead determined. Compounds which are effective in decreasing the sensitivity to distension of th colonic wall delays the expulsion of the bead. The test is carried out with male albino mice of 18-25 grams body weight using groups of five mice for each compound dose tested. The initial screen dose selected for all compounds is 50 milligrams per kilogram of body weight (mg/kg) administered orally in a volume of 0.1 milliliter per 10 grams of body weight. The control groups receive the vehicle, 0.5 percent methocel, used for both oral and intraperitoneal administration. The mice are fasted one hour before testing and the test drugs are given one hour prior to glass bead insertion. At the end of the pretreatment time, the mouse is picked up and held firmly in one hand with his abdomen facing the technician. The glass bead of 3 millimeters in diameter is positioned at the rectum and using a pinching action with a thumb and forefinger, the bead is pushed into the rectum. Then using a glass rod of 3 millimeters in diameter which has been lubricated with 0.5 percent methocel to facilitate insertion, the glass bead is pushed up into the rectum a distance of 2 centimeters using a slow gentle turning motion. The mice are timed as a group using the last mouse inserted as zero time and the number of beads expelled in a group at different timed intervals are recorded. The groups are based on timed intervals of 0 to 5 minutes, 5 to 10 minutes, 10 to 20 minutes, 20 to 40 minutes and greater than 40 minutes. They are given the activity index values of 0, 1, 2, 3 and 4, respectively. Mice who have not expelled their beads by the 40-minute cutoff time are examined for perforations. Those mice whose colons are perforated are eliminated from the group. The sum of the values divided by the number of mice or beads is termed the activity index for the drug tested. The ED50 is determined by regression lines using the method of least squares. The ED50 is arbitrarily assigned as that dose causing an activity index of 2. The results of this test employing intraperitoneal and oral administration of N-aryl-N'-(2-imidazolidinylidene)urea compounds are shown in Table I.

[1] abbreviates: ip, intraperitoneal, read-out: ED50 Intraperitoneal.

For the compound `Cc1cccc(Cl)c1NC(=O)N=C1NCCN1.Cl` [2-Cl,6-CH3 -.phi., N-(2-chloro-6-methylphenyl)-N'-(2-imidazolidinylidene)urea hydrochloride], the ED50 reads like this: (oral, read-out: ED50 Per Os) 35 mg/kg; under setting [1], 8 mg/kg.

For the compound `Cl.O=C(N=C1NCCN1)Nc1c(Br)cccc1Br` [2,6-diBr-.phi., N-(2,6-dibromophenyl)-N'-(2-imidazolidinylidene)urea hydrochloride], the ED50 was 38 mg/kg (oral, read-out: ED50 Per Os) and 9 mg/kg under setting [1].

As to `Cc1cccc(C)c1NC(=O)N=C1NCCN1` [2,6-di(CH3)-.phi., N-(2,6-dimethylphenyl)-N'-(2-imidazolidinylidene)urea], the 50% effective dose (ED50) runs as follows: (oral, read-out: ED50 Per Os) 16 mg/kg; under setting [1], 12 mg/kg.

As for `CCc1cccc(C)c1NC(=O)N=C1NCCN1` [2-C2 H5,6-CH3 -.phi., N-(2-Ethyl-6-methylphenyl)-N'-(2-imidazolidinylidene)urea. Fumarate (3:2)], the 50% effective dose (ED50) runs as follows: (oral, read-out: ED50 Per Os) 121 mg/kg; under setting [1], 43 mg/kg.

`Cl.O=C(N=C1NCCN1)Nc1c(Cl)cccc1Cl` [2,6-diCl-.phi., N-(2,6-Dichlorophenyl)-N'-(2-imidazolidinylidene)urea Hydrochloride]: the ED50 is, setting by setting: (oral, read-out: ED50 Per Os) 13.7 mg/kg; under setting [1], 7 mg/kg.

For orientation: ED50 means the dose at which the effect has come halfway, by size or by number of responders.

The values above are taken from patent US4239768A, “Method for relieving irritable bowel syndrome symptoms” (McNeilab, Inc., priority 1978, dated 1980).
